Assay results published in the supplement of paper PMC10307832.

Assays:
Assay in all cases: relative viability (nuclei count vs DMSO), 5 days (fraction); higher = more cells survive
RU-SKI 43 + Palbociclib = compound: CC[C@@H](C)CNCC(=O)N1CCC2=C([C@@H]1COC3=CC=CC(=C3)C)C=CS2 [RU-SKI 43] + CC(=O)c1c(C)c2cnc(Nc3ccc(N4CCNCC4)cn3)nc2n(C2CCCC2)c1=O [Palbociclib] (partner 0.5 µM)
Method in brief: (§1)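 Relative viability divides the nuclei count in treated wells by that in vehicle wells. Lung cancer cell lines were seeded in 1536-well plates, dosed by pin tool the next day, and fixed and stained after 5 days in one step with final 0.05% Triton X-100, 1% formaldehyde and 1 ug/ml Hoechst. Dosing was a single drug or a fixed anchor-drug dose plus five library-drug doses (not always all listed) in √10 steps, and values are medians of duplicate plates imaged at 4×.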

RU-SKI 43 + Dasatinib = compound: CC[C@@H](C)CNCC(=O)N1CCC2=C([C@@H]1COC3=CC=CC(=C3)C)C=CS2 [RU-SKI 43] + Cc1nc(Nc2ncc(C(=O)Nc3c(C)cccc3Cl)s2)cc(N2CCN(CCO)CC2)n1 [Dasatinib] (partner 0.075 µM)
Method in brief: as §1

Irinotecan + OSI-027 = compound: CCc1c2c(nc3ccc(OC(=O)N4CCC(N5CCCCC5)CC4)cc13)-c1cc3c(c(=O)n1C2)COC(=O)[C@]3(O)CC [Irinotecan] + COc1cccc2cc(-c3nc([C@H]4CC[C@H](C(=O)O)CC4)n4ncnc(N)c34)[nH]c12 [OSI-027] (partner 0.5 µM)
Method in brief: as §1

Irinotecan + AZD7762 = compound: CCc1c2c(nc3ccc(OC(=O)N4CCC(N5CCCCC5)CC4)cc13)-c1cc3c(c(=O)n1C2)COC(=O)[C@]3(O)CC [Irinotecan] + NC(=O)Nc1cc(-c2cccc(F)c2)sc1C(=O)N[C@H]1CCCNC1 [AZD7762] (partner 0.2 µM)
Method in brief: as §1

Cell Line | relative viability (RU-SKI 43 + Palbociclib; first compound 0.1 µM) | relative viability (RU-SKI 43 + Palbociclib; first compound 0.3162 µM) | relative viability (RU-SKI 43 + Palbociclib; first compound 1 µM) | relative viability (RU-SKI 43 + Palbociclib; first compound 3.162 µM) | relative viability (RU-SKI 43 + Palbociclib; first compound 10 µM) | relative viability (RU-SKI 43 + Dasatinib; first compound 0.1 µM) | relative viability (RU-SKI 43 + Dasatinib; first compound 0.3162 µM) | relative viability (RU-SKI 43 + Dasatinib; first compound 1 µM) | relative viability (RU-SKI 43 + Dasatinib; first compound 3.162 µM) | relative viability (RU-SKI 43 + Dasatinib; first compound 10 µM) | relative viability (Irinotecan + OSI-027; first compound 0.6325 µM) | relative viability (Irinotecan + OSI-027; first compound 2 µM) | relative viability (Irinotecan + OSI-027; first compound 6.325 µM) | relative viability (Irinotecan + OSI-027; first compound 20 µM) | relative viability (Irinotecan + AZD7762; first compound 0.6325 µM) | relative viability (Irinotecan + AZD7762; first compound 2 µM) | relative viability (Irinotecan + AZD7762; first compound 6.325 µM) | relative viability (Irinotecan + AZD7762; first compound 20 µM)
LU99A | 0.376 | 0.442 | 0.53 | 0.399 | 0.387 | 0.486 | 0.614 | 0.602 | 0.587 | 0.599 | 0.202 | 0.243 | 0.181 | 0.242 | 0.152 | 0.13 | 0.106 | 0.132
LXF-289 | 0.605 | 0.666 | 0.615 | 0.61 | 0.607 | 0.217 | 0.21 | 0.218 | 0.231 | 0.187 | 0.472 | 0.797 | 0.421 | 0.24 | 1.01 | 1.05 | 0.425 | 0.192
NCI-H23 | 0.464 | 0.515 | 0.548 | 0.568 | 0.47 | 0.691 | 0.809 | 0.797 | 0.868 | 0.515 | 0.327 | 0.603 | 0.176 | 0.288 | 0.158 | 0.238 | 0.251 | 0.202
NCI-H322M | 0.459 | 0.483 | 0.44 | 0.524 | 0.457 | 0.256 | 0.238 | 0.255 | 0.249 | 0.259 | 0.414 | 0.479 | 0.521 | 0.216 | 0.537 | 0.553 | 0.448 | 0.28
NCI-H358 | 0.129 | 0.152 | 0.15 | 0.128 | 0.128 | 0.166 | 0.127 | 0.131 | 0.151 | 0.167 | 0.715 | 0.377 | 0.217 | 0.125 | 0.38 | 0.508 | 0.339 | 0.349
NCI-H441 | 0.192 | 0.278 | 0.205 | 0.229 | 0.146 | 0.615 | 0.656 | 0.553 | 0.582 | 0.386 | 0.371 | 0.448 | 0.281 | 0.327 | 0.964 | 0.411 | 0.277 | 0.288
NCI-H460 | 0.222 | 0.165 | 0.183 | 0.199 | 0.128 | 0.505 | 0.592 | 0.652 | 0.573 | 0.51 | 0.347 | 0.494 | 0.12 | 0.043 | – | 0.202 | 0.0963 | 0.0901
NCI-H522 | 1.22 | 1.08 | 1.18 | 1.29 | 0.977 | 0.896 | 0.954 | 1.11 | 1.03 | 0.828 | 1.07 | 0.643 | 0.645 | 0.569 | 0.635 | 0.746 | 0.571 | 0.555
NCI-H647 | 0.472 | 0.371 | 0.382 | 0.471 | 0.287 | 0.155 | 0.226 | 0.223 | 0.192 | 0.135 | 0.564 | 0.634 | 0.277 | 0.183 | 0.294 | 0.273 | 0.131 | 0.2
NCI-H650 | 0.344 | 0.312 | – | 0.338 | 0.337 | 0.484 | 0.45 | 0.468 | 0.398 | 0.45 | 0.467 | 0.587 | 0.316 | 0.277 | 0.722 | 1.09 | 0.309 | 0.217
NCI-H727 | – | 0.559 | 0.682 | 0.671 | 0.622 | 0.438 | 0.285 | 0.426 | 0.473 | 0.307 | 0.338 | 0.499 | 0.391 | 0.428 | 0.462 | 0.575 | 0.406 | 0.342
NCI-H838 | 0.213 | 0.233 | 0.225 | 0.239 | 0.188 | 0.296 | 0.213 | 0.303 | 0.247 | 0.327 | 0.508 | 0.37 | 0.368 | 0.257 | 0.887 | 0.787 | 0.749 | 0.645
NCI-H1355 | 0.405 | 0.381 | 0.358 | 0.42 | 0.389 | 0.674 | 0.868 | 0.781 | 0.761 | 0.739 | – | 0.375 | 0.269 | 0.25 | – | 0.68 | 0.368 | 0.257
NCI-H1395 | 0.638 | 0.685 | 0.714 | 0.624 | 0.573 | 0.4 | 0.375 | 0.437 | 0.37 | 0.456 | 0.352 | 0.561 | 0.45 | 0.438 | – | 0.441 | 0.424 | 0.233
NCI-H1437 | 0.32 | 0.294 | 0.348 | 0.31 | 0.246 | 0.541 | 0.452 | 0.472 | 0.452 | 0.377 | 0.797 | 0.722 | 0.378 | 0.184 | 0.891 | 0.557 | 0.261 | 0.174
NCI-H1651 | 0.522 | 0.533 | 0.532 | 0.537 | 0.542 | 0.439 | 0.393 | 0.412 | 0.332 | 0.491 | 0.532 | 0.485 | 0.349 | 0.174 | 0.234 | 0.368 | 0.172 | 0.15
NCI-H1666 | 0.66 | 0.63 | 0.707 | 0.609 | 0.64 | 0.772 | 0.922 | 0.799 | 0.763 | 0.699 | 0.792 | 0.809 | 0.544 | 0.26 | 0.815 | 0.687 | 0.552 | 0.503
NCI-H1734 | 0.351 | 0.323 | 0.358 | 0.325 | 0.298 | 0.384 | 0.451 | 0.478 | 0.444 | 0.343 | – | 0.509 | 0.225 | 0.165 | – | 0.399 | 0.185 | 0.139
